Key:
[1] = target: T1, juvenile hormone-binding protein (JHBP) (Bombyx mori, UniProt Q9U556); experiment: radioligand competition with 3H-JH III (dextran-coated charcoal)
T1 construct: gene hJHBP; recombinant mature JHBP

[2] = target: T1, juvenile hormone-binding protein (JHBP); experiment: crystal structure ([…] Å); competition with 3H-JH III (charcoal assay)

| IC50 [2] | Structure (SMILES) | IC50 [1] |
| --- | --- | --- |
| – | COC(C)(C)CCC[C@H](C)C/C=C/C(C)=C/C(=O)OC(C)C (racemic) [methoprene] | 35 µM |
| 160 µM | CC(O)CC(C)(C)O (racemic) [MPD, 2-methyl-2,4-pentanediol] | – |

Reference: article PMC3577830, “Crystal Structure of Silkworm Bombyx mori JHBP in Complex With 2-Methyl-2,4-Pentanediol: Plasticity of JH-Binding Pocket and Ligand-Induced Conformational Change of the Second Cavity in JHBP” (PLoS ONE, 2013)
